“Also recorded” adds a separate entry of the source.
Legend:
[1] = system: ENR+CD organoids (ISC to Paneth cell differentiation); experiment: Primary screen: CCh-stimulated lysozyme secretion LYZ.S, 2.5-D 384-well ENR+CD organoid differentiation; format: cell-based, mouse; conditions: for Dose.FC.LYZ.S / Dose.FC.LYZ.S (log2 fold change): primary screen
Description: (§1) High-throughput screening.

[2] = system: ENR+CD organoids (ISC to Paneth cell differentiation); experiment: Primary screen: basal (non-stimulated) lysozyme secretion LYZ.NS, 2.5-D 384-well ENR+CD organoid differentiation; format: cell-based, mouse
Description: as §1

ENR+CD organoids = experiment: Primary screen: ATP (CellTiter-Glo 3D, CTG) cell number/viability, 2.5-D 384-well ENR+CD organoids; conditions: primary screen; for Z.CTG: standard z score;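 as to all read-outs here: compounds given at plating and again on day 3 over a 6-day differentiation from ENR+CV stem-cell-enriched precursors, ATP measured on day 6, plate median as control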
[3] = primary screen, standard z score, dose 0.08 uM
[4] = primary screen, standard z score, dose 0.40 uM
[5] = primary screen, standard z score, dose 2.00 uM
[6] = primary screen, standard z score, dose 10.00 uM
[7] = dose 0.08 uM, FC relative to plate median
[8] = dose 0.40 uM, FC relative to plate median
[9] = dose 2.00 uM, FC relative to plate median
[10] = dose 10.00 uM, FC relative to plate median

Compound	Dose.FC.LYZ.S ([1]; dose 0.08 uM)	Dose.FC.LYZ.S ([1]; dose 0.40 uM)	Dose.FC.LYZ.S ([1]; dose 2.00 uM)	Dose.FC.LYZ.S ([1]; dose 10.00 uM)	Dose.FC.CTG (ENR+CD organoids; dose 0.08 uM)	Dose.FC.CTG (ENR+CD organoids; dose 0.40 uM)	Dose.FC.CTG (ENR+CD organoids; dose 2.00 uM)	Dose.FC.CTG (ENR+CD organoids; dose 10.00 uM)	Z.LYZ.NS (standard z score) ([2]; primary screen, dose 0.40 uM)	Z.LYZ.NS (standard z score) ([2]; primary screen, dose 2.00 uM)	Z.LYZ.NS (standard z score) ([2]; primary screen, dose 10.00 uM)	Z.CTG (standard z score) (ENR+CD organoids; dose 0.08 uM)	Z.CTG (standard z score) (ENR+CD organoids; dose 0.40 uM)	Z.CTG (standard z score) (ENR+CD organoids; dose 2.00 uM)	Z.CTG (standard z score) (ENR+CD organoids; dose 10.00 uM)	also measured
C[C@]12C=CC(=O)N[C@@H]1CC[C@@H]1[C@@H]2CC[C@]2(C)[C@@H](C(=O)Nc3cc(C(F)(F)F)ccc3C(F)(F)F)CC[C@@H]12 [Dutasteride]	0.001 log2 fold change	−0.054 log2 fold change	−0.074 log2 fold change	−0.151 log2 fold change	0.057 log2 fold change	−0.266 log2 fold change	−0.098 log2 fold change	−0.057 log2 fold change	–	–	–	–	–	–	–	Dose.FC.LYZ.NS ([2]; primary screen, dose 0.08 uM): 0.065 log2 fold change; Dose.FC.LYZ.NS ([2]; primary screen, dose 0.40 uM): 0.006 log2 fold change; Dose.FC.LYZ.NS ([2]; primary screen, dose 2.00 uM): −0.105 log2 fold change; Dose.FC.LYZ.NS ([2]; primary screen, dose 10.00 uM): −0.092 log2 fold change; Z.LYZ.NS [2, 3]: 0.568; Z.LYZ.NS [2, 4]: 0.052; Z.LYZ.NS [2, 5]: −0.915; Z.LYZ.NS [2, 6]: −0.799
CCOC(=O)N1CCC(=C2c3ccc(Cl)cc3CCc3cccnc32)CC1 [Loratadine]	–	–	–	–	–	–	–	–	−0.005	−0.938	−0.881	–	–	–	–	Dose.FC.LYZ.S (log2 fold change) ([1]; dose 0.08 uM): −0.076; Dose.FC.LYZ.S (log2 fold change) ([1]; dose 0.40 uM): 0.011; Dose.FC.LYZ.S (log2 fold change) ([1]; dose 2.00 uM): −0.148; Dose.FC.LYZ.S (log2 fold change) ([1]; dose 10.00 uM): −0.148; Dose.FC.LYZ.NS (log2 fold change) ([2]; primary screen, dose 0.08 uM): 0.011; Z.LYZ.NS (standard z score) ([2]; primary screen, dose 0.08 uM): 0.093; Dose.FC.LYZ.NS (log2 fold change) ([2]; primary screen, dose 0.40 uM): −0.001; Dose.FC.LYZ.NS (log2 fold change) ([2]; primary screen, dose 2.00 uM): −0.108; Dose.FC.LYZ.NS (log2 fold change) ([2]; primary screen, dose 10.00 uM): −0.101; Dose.FC.CTG (log2 fold change) (ENR+CD organoids; dose 0.08 uM): −0.292; Dose.FC.CTG (log2 fold change) (ENR+CD organoids; dose 0.40 uM): 0.145; Dose.FC.CTG (log2 fold change) (ENR+CD organoids; dose 2.00 uM): −0.204; Dose.FC.CTG (log2 fold change) (ENR+CD organoids; dose 10.00 uM): −0.120
COc1cc2c(cc1OC)CN(CCc1ccc(NC(=O)c3cc(OC)c(OC)cc3NC(=O)c3cnc4ccccc4c3)cc1)CC2 [Tariquidar]	–	–	–	–	–	–	–	–	–	–	–	–	–	–	–	Dose.FC.LYZ.S [1, 7]: 0.040 log2 fold change; Dose.FC.LYZ.S [1, 8]: 0.073 log2 fold change; Dose.FC.LYZ.S [1, 9]: 0.059 log2 fold change; Dose.FC.LYZ.S [1, 10]: 0.019 log2 fold change; Dose.FC.LYZ.NS ([2]; primary screen, dose 0.08 uM, FC relative to plate median): 0.053 log2 fold change; Z.LYZ.NS ([2]; primary screen, dose 0.08 uM, standard z score): 0.465; Dose.FC.LYZ.NS ([2]; primary screen, dose 0.40 uM, FC relative to plate median): 0.037 log2 fold change; Z.LYZ.NS ([2]; primary screen, dose 0.40 uM, standard z score): 0.326; Dose.FC.LYZ.NS ([2]; primary screen, dose 2.00 uM, FC relative to plate median): 0.031 log2 fold change; Z.LYZ.NS ([2]; primary screen, dose 2.00 uM, standard z score): 0.270; Dose.FC.LYZ.NS ([2]; primary screen, dose 10.00 uM, FC relative to plate median): 0.034 log2 fold change; Z.LYZ.NS ([2]; primary screen, dose 10.00 uM, standard z score): 0.292; Dose.FC.CTG (ENR+CD organoids; [7]): −0.117 log2 fold change; Dose.FC.CTG (ENR+CD organoids; [8]): 0.054 log2 fold change; Dose.FC.CTG (ENR+CD organoids; [9]): 0.376 log2 fold change; Dose.FC.CTG (ENR+CD organoids; [10]): 0.227 log2 fold change
COc1cc(N2CCC(N3CCN(C)CC3)CC2)ccc1Nc1ncc(Cl)c(Nc2ccccc2P(C)(C)=O)n1 [AP26113]	0.109 log2 fold change	−0.038 log2 fold change	−0.244 log2 fold change	−0.343 log2 fold change	−0.054 log2 fold change	0.061 log2 fold change	−0.558 log2 fold change	−1.680 log2 fold change	−0.541	−1.706	−2.370	–	–	–	–	Dose.FC.LYZ.NS ([2]; primary screen, dose 0.08 uM): −0.013 log2 fold change; Z.LYZ.NS (standard z score) ([2]; primary screen, dose 0.08 uM): −0.116; Dose.FC.LYZ.NS ([2]; primary screen, dose 0.40 uM): −0.062 log2 fold change; Dose.FC.LYZ.NS ([2]; primary screen, dose 2.00 uM): −0.196 log2 fold change; Dose.FC.LYZ.NS ([2]; primary screen, dose 10.00 uM): −0.272 log2 fold change
C[C@H](N[C@@H](CCc1ccccc1)C(=O)O)C(=O)N1CCC[C@H]1C(=O)O.O.O [Enalaprilat Dihydrate]	−0.001 log2 fold change	0.111 log2 fold change	−0.095 log2 fold change	−0.281 log2 fold change	−0.190 log2 fold change	−0.124 log2 fold change	−0.331 log2 fold change	−0.979 log2 fold change	–	–	–	–	–	–	–	Dose.FC.LYZ.NS ([2]; primary screen, dose 0.08 uM): 0.003 log2 fold change; Dose.FC.LYZ.NS ([2]; primary screen, dose 0.40 uM): −0.003 log2 fold change; Dose.FC.LYZ.NS ([2]; primary screen, dose 2.00 uM): −0.022 log2 fold change; Dose.FC.LYZ.NS ([2]; primary screen, dose 10.00 uM): −0.157 log2 fold change; Z.LYZ.NS [2, 3]: 0.027; Z.LYZ.NS [2, 4]: −0.030; Z.LYZ.NS [2, 5]: −0.195; Z.LYZ.NS [2, 6]: −1.364; Z.CTG (ENR+CD organoids; dose 0.08 uM): −0.454; Z.CTG (ENR+CD organoids; dose 0.40 uM): −0.296; Z.CTG (ENR+CD organoids; dose 2.00 uM): −0.791; Z.CTG (ENR+CD organoids; dose 10.00 uM): −2.338
CCc1cc(Nc2nccc(-c3c(-c4ccc(OC)c(C(=O)Nc5c(F)cccc5F)c4)nc4ccccn34)n2)c(OC)cc1N1CCC(N2CCN(S(C)(=O)=O)CC2)CC1 [GSK1904529A]	–	–	–	–	–	–	–	–	0.977	−1.557	−1.419	0.484	−0.170	−1.361	−1.649	Dose.FC.LYZ.S (log2 fold change) ([1]; dose 0.08 uM): 0.133; Dose.FC.LYZ.S (log2 fold change) ([1]; dose 0.40 uM): −0.047; Dose.FC.LYZ.S (log2 fold change) ([1]; dose 2.00 uM): −0.225; Dose.FC.LYZ.S (log2 fold change) ([1]; dose 10.00 uM): −0.276; Dose.FC.LYZ.NS (log2 fold change) ([2]; primary screen, dose 0.08 uM): 0.102; Z.LYZ.NS (standard z score) ([2]; primary screen, dose 0.08 uM): 0.890; Dose.FC.LYZ.NS (log2 fold change) ([2]; primary screen, dose 0.40 uM): 0.112; Dose.FC.LYZ.NS (log2 fold change) ([2]; primary screen, dose 2.00 uM): −0.179; Dose.FC.LYZ.NS (log2 fold change) ([2]; primary screen, dose 10.00 uM): −0.163; Dose.FC.CTG (log2 fold change) (ENR+CD organoids; dose 0.08 uM): 0.202; Dose.FC.CTG (log2 fold change) (ENR+CD organoids; dose 0.40 uM): −0.071; Dose.FC.CTG (log2 fold change) (ENR+CD organoids; dose 2.00 uM): −0.570; Dose.FC.CTG (log2 fold change) (ENR+CD organoids; dose 10.00 uM): −0.691
O=c1cc(-c2cccc3c2Sc2ccccc2S3)oc(N2CCOCC2)c1 [KU-55933 (ATM Kinase Inhibitor)]	–	–	–	–	–	–	–	–	–	–	–	1.251	1.140	1.317	1.293	–
COc1cc(CCc2cc(NC(=O)c3ccc(N4CC(C)NC(C)C4)cc3)n[nH]2)cc(OC)c1 (centres unmarked) [AZD4547]	0.157 log2 fold change	0.083 log2 fold change	0.074 log2 fold change	−0.049 log2 fold change	0.160 log2 fold change	0.101 log2 fold change	−0.010 log2 fold change	−0.062 log2 fold change	–	–	–	0.382	0.241	−0.024	−0.147	–
KX2-391	–	–	–	–	–	–	–	–	−2.546	−2.188	−2.494	−1.796	−2.989	−4.737	−3.377	Dose.FC.LYZ.NS (log2 fold change) ([2]; primary screen, dose 0.08 uM): −0.283; Z.LYZ.NS (standard z score) ([2]; primary screen, dose 0.08 uM): −2.468; Dose.FC.LYZ.NS (log2 fold change) ([2]; primary screen, dose 2.00 uM): −0.251; Dose.FC.LYZ.NS (log2 fold change) ([2]; primary screen, dose 10.00 uM): −0.286
CNC(=O)c1cc(Oc2ccc(NC(=O)Nc3cc(C(C)(C)C)nn3-c3ccc4ncccc4c3)c(F)c2)ccn1 [Rebastinib, reference compound]	–	–	–	–	–	–	–	–	–	–	–	–	–	–	–	primary screen hit call (SSMD and z-scored FC cutoffs in both LYZ assays) ([2]; LYZ.NS and LYZ.S; 0.08-10 uM, 6 days ENR+CD): excluded from the hit list due to underperformance on all three assays compared to Bosutinib
CC1=C(/C=C/C(C)=C/C=C/C(C)=C\C(=O)O)C(C)(C)CCC1 [Isotretinoin]	–	–	–	–	–	–	–	–	0.407	0.578	0.718	–	–	–	–	–
C=CC(=O)Nc1cccc(Oc2nc(Nc3ccc(N4CCN(C)CC4)cc3OC)ncc2Cl)c1 [WZ4002]	0.114 log2 fold change	0.046 log2 fold change	−0.109 log2 fold change	−0.319 log2 fold change	0.313 log2 fold change	0.082 log2 fold change	0.151 log2 fold change	−0.941 log2 fold change	–	–	–	0.748	0.196	0.360	−2.248	–
C[N+](C)(C)CCOC(N)=O.[Cl-] [CCh, carbamoylcholine chloride, reference compound]	–	–	–	–	–	–	–	–	–	–	–	–	–	–	–	secreted LYZ in LYZ.S assay, controls subsequently stimulated with CCh vs non-stimulated ([1]; 10 uM CCh, adj. p<0.05): showed significant differences; also recorded: significant increase in secreted LYZ; secreted LYZ in LYZ.NS assay, CCh-stimulated vs non-stimulated ENR+CD controls ([2]; 10 uM CCh; adj. p<0.0001): significantly greater
CC(C)C[C@H](NC(=O)[C@H](Cc1ccccc1)NC(=O)c1cnccn1)B(O)O [Bortezomib (PS-341)]	−0.239 log2 fold change	−0.173 log2 fold change	−0.249 log2 fold change	−0.238 log2 fold change	−1.904 log2 fold change	−2.146 log2 fold change	−0.915 log2 fold change	−1.359 log2 fold change	–	–	–	−4.547	−5.127	−2.185	−3.246	–

From patent US20220323406A1, “METHODS AND COMPOSITIONS FOR DIFFERENTIATING STEM CELLS” (Massachusetts Institute of Technology, priority 2019, published 2022)
